For orientation: MIC means the smallest concentration in the dilution series that meets the test's criterion for growth inhibition. As a reminder, the IC50 is the point on the concentration scale where inhibition reaches its midpoint.

Eight compounds from patent US10800791B2, “Triazole ACC inhibitors and uses thereof” (Gilead Apollo, LLC, priority 2015, dated 2020) can be followed below.

One assay deals with C. parapsilosis. Kind of assay: Antifungal Activity Assay (broth microtiter MIC), C. parapsilosis. The assay is classed as cell-based, Candida parapsilosis. Conditions: Lodderomyces parapsilosis, ATCC22019, 48 h. Summed up:
(§1)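 Colonies from 24 h Sabouraud dextrose agar plates (35° C) are suspended in RPMI 1640+MOPS and diluted to give 2.5×10^3 CFU/mL in the wells. Plates are set up per CLSI M27-A3. Visual MIC is recorded at 48 h.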

The next assay concerns the target human (hACC2) (Homo sapiens, UniProt O00763). As to the kind of experiment: In vitro ACC inhibition assay (ADP-Glo), hACC2. The note with it: 5 nM ACC2, 20 μM ATP, 20 μM acetyl-CoA. It counts as biochemical. The procedure: The detailed procedure is as follows. […] 10 μL ADP glo reagent was added. […] 20 μL kinase detection reagent was added.
For orientation: ADP-Glo first removes unused ATP, then detects ADP through luciferase.

The test system of another assay is C. krusei. Kind of assay: Antifungal Activity Assay (broth microtiter MIC), C. krusei. Conditions: Pichia kudriavzevii, ATCC6258, 48 h. The assay is classed as cell-based, Candida krusei. Summed up:
as §1

The test system of a further assay is C. albicans. As to the kind of experiment: Antifungal Activity Assay (broth microtiter MIC), C. albicans. It counts as cell-based, Candida albicans. Conditions: Candida albicans, ATCC90028, 48 h. Summed up: as §1
A further assay has as its target fungal (fACC2) (UniProt Q00955). The note with it: read-out: fACC2 (in vitro ACC2 Inhibition Assay, IC50), ADP-Glo, 5 nM ACC2, 20 μM ATP, 20 μM acetyl-CoA.
Setting [1] is: Table 3a, ATCC 22019, 3 replicates, MIC recorded at 48 h, read-out: MIC, C. parapsilosis ATCC 22019.
[2] abbreviates: Table 3b (additional results), ATCC 22019, 3 replicates, MIC recorded at 48 h, read-out: MIC, C. parapsilosis ATCC 22019.
[3] abbreviates: Table 3a, ATCC 6258, 3 replicates, MIC recorded at 48 h, read-out: MIC, C. krusei ATCC 6258.
[4] abbreviates: Table 3b (additional results), ATCC 6258, 3 replicates, MIC recorded at 48 h, read-out: MIC, C. krusei ATCC 6258.
Setting [5] is: Table 3a, ATCC 90028, 3 replicates, MIC recorded at 48 h, read-out: MIC, C. albicans ATCC 90028.
[6] abbreviates: Table 3b (additional results), ATCC 90028, 3 replicates, MIC recorded at 48 h, read-out: MIC, C. albicans ATCC 90028.
Where [7] appears, read: read-out: MIC, C. parapsilosis ATCC 22019, Table 3b (additional results), 3 replicates, MIC recorded at 48 h.
Where [8] appears, read: read-out: MIC, C. krusei ATCC 6258, Table 3b (additional results), 3 replicates, MIC recorded at 48 h.
The mark [9] stands for this setting: read-out: MIC, C. albicans ATCC 90028, Table 3b (additional results), 3 replicates, MIC recorded at 48 h.

Molecules are shown by their SMILES. ≈ marks a conversion by molar mass, not a printed value. Read-outs that look alike come from different tables or passages of the source.

fungal (fACC2), sequence (Q00955 whole entry): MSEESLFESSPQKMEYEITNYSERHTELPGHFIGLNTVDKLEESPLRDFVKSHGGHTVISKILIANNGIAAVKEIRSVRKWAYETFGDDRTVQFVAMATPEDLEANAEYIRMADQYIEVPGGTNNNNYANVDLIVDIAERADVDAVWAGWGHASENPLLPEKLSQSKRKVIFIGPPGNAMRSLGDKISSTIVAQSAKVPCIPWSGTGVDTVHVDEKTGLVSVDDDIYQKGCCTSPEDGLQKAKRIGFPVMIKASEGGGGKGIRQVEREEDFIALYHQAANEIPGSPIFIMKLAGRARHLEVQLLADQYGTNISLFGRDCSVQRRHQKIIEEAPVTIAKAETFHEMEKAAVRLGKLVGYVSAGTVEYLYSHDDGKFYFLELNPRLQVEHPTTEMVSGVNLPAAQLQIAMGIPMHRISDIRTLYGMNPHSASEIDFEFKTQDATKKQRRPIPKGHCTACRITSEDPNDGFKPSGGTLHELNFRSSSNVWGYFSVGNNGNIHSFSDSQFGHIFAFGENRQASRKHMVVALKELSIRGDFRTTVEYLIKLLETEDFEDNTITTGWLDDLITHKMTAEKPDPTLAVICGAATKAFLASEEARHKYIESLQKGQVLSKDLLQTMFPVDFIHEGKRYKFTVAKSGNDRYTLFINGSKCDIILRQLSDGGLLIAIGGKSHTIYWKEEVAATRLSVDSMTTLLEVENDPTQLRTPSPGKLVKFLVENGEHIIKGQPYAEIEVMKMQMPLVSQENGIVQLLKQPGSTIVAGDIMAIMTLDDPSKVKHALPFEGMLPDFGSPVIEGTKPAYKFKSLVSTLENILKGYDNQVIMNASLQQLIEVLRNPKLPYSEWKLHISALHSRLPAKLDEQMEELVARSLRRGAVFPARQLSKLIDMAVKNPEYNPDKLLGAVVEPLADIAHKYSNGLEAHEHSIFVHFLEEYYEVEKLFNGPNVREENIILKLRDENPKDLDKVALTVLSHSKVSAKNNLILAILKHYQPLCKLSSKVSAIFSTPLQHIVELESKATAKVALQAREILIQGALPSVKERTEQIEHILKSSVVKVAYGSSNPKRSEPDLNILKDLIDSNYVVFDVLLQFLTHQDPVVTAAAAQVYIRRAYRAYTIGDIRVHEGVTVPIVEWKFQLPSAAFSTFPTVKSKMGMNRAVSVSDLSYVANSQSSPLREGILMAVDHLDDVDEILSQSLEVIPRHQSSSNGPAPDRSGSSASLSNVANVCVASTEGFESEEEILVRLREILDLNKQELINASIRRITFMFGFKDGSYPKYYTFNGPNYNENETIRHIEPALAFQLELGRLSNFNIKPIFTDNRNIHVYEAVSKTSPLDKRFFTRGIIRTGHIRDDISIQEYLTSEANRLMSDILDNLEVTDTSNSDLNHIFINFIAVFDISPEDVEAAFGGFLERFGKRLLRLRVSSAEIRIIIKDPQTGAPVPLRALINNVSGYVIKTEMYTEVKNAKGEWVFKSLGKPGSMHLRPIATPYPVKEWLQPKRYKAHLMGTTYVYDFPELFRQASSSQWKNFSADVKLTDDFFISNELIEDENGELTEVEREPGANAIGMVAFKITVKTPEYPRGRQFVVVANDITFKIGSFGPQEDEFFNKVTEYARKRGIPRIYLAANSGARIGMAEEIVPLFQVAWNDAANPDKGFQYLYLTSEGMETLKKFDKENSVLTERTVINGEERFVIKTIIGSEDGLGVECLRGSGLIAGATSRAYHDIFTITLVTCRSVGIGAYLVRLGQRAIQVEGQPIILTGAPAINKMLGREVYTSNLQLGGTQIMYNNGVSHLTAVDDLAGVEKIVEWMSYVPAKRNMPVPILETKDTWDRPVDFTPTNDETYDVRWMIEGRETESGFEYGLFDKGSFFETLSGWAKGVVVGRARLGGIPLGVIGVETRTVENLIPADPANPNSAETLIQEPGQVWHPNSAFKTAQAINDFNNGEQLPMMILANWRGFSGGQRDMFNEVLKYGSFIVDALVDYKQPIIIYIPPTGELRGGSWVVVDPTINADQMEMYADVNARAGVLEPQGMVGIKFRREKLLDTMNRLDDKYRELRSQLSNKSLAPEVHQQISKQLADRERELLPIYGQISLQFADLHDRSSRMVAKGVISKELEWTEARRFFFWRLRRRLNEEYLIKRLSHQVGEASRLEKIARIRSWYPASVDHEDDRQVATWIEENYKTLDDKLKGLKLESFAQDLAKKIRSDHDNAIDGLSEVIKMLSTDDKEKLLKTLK
human (hACC2), sequence (O00763 whole entry): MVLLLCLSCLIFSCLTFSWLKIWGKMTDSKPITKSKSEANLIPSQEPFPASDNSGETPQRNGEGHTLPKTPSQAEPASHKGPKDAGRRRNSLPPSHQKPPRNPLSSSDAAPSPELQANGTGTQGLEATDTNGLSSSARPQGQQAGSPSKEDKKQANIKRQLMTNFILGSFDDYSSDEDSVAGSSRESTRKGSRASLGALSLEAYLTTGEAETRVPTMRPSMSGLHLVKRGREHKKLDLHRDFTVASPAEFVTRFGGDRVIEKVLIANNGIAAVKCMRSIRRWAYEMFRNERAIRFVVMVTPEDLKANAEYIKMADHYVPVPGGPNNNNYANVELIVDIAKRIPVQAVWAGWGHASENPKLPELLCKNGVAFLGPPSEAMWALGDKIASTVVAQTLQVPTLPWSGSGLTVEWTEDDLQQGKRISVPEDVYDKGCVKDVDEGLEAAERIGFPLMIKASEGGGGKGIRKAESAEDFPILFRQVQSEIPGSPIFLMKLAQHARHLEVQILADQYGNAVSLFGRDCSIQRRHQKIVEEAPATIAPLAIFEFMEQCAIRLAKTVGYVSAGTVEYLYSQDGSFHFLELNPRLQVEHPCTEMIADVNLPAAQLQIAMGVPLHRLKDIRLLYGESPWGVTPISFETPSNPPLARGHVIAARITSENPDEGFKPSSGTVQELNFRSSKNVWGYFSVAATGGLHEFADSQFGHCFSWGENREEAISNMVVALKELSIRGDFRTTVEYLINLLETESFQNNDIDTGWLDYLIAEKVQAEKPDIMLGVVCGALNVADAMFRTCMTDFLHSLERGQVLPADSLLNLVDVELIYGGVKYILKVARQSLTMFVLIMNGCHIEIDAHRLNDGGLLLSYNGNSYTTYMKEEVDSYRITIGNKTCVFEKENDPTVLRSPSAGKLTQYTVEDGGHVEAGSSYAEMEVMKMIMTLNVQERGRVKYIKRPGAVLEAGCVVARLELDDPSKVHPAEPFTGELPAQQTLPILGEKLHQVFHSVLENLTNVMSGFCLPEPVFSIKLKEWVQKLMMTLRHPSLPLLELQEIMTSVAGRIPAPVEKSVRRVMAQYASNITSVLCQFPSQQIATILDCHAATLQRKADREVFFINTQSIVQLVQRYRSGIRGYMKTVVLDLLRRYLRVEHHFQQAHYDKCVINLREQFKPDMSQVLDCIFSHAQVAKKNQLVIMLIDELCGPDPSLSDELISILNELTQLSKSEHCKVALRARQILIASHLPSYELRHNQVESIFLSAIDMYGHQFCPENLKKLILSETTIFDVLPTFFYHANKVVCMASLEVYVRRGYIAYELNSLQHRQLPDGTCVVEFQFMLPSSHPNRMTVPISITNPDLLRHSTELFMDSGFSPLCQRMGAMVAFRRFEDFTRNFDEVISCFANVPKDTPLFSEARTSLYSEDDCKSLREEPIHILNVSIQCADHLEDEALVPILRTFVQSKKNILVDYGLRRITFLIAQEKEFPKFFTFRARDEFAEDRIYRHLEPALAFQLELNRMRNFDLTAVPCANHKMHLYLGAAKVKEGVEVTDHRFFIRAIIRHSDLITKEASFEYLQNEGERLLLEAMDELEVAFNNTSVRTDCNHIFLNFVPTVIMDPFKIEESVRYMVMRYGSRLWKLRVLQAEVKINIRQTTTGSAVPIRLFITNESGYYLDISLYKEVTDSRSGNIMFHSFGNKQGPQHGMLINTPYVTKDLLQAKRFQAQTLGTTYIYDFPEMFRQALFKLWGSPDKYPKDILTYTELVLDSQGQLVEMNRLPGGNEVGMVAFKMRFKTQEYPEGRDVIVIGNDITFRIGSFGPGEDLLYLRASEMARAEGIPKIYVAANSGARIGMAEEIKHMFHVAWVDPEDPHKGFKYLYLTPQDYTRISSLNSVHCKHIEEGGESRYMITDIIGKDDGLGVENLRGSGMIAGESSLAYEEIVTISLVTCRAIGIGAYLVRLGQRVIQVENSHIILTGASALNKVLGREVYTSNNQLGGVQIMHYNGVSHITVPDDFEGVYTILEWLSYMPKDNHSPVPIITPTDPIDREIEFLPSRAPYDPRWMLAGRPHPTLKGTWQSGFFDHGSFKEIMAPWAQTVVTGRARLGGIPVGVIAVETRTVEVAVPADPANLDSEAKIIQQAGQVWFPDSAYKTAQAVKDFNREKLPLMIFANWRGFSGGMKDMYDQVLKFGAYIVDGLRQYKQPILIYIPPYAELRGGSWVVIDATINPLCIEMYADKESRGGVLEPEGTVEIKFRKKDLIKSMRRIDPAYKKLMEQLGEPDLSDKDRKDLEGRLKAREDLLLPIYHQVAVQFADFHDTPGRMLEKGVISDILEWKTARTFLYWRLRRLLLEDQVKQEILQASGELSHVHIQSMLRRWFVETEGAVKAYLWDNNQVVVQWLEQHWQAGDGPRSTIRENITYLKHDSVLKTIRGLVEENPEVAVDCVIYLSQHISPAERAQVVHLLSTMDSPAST

In the case of `COc1ccc(F)cc1[C@H](Cn1c(=O)n([C@H](C)C(=O)N(C)C(C)C)c(=O)c2c(C)c(-n3nccn3)sc21)OC1CCC(=O)CC1` [Compound I-164], the minimum inhibitory concentration (MIC) in the assay with C. parapsilosis (setting [1]) is 0.25 to 1 µg/mL (≈ 0.39 to 1.56 µM); in the assay on C. parapsilosis (setting [2]), 1.01 to 2 µg/mL (≈ 1.58 to 3.12 µM); with C. krusei (setting [3]), 0.25 to 1 µg/mL (≈ 0.39 to 1.56 µM); in the assay on C. krusei (setting [4]) it was 0.25 to 1 µg/mL (≈ 0.39 to 1.56 µM); in the assay with C. albicans (setting [5]), 0.25 to 1 µg/mL (≈ 0.39 to 1.56 µM); with C. albicans (setting [6]), 0.25 to 1 µg/mL (≈ 0.39 to 1.56 µM). Moreover, the IC50 on human (hACC2) (Table 2a) lay within 5 to 10 nM; against human (hACC2) (Table 2b, additional results) it was 5 to 10 nM; at fungal (fACC2) (Table 2a), 1 to 5 nM; at fungal (fACC2) (Table 2b, additional results), 1 to 5 nM.
In the case of `COc1ccc(F)cc1[C@H](Cn1c(=O)n([C@@H](C)C(=O)N(C)C(C)C)c(=O)c2c(C)c(-n3nccn3)sc21)OC1CCC(=O)CC1` [Compound I-165], the minimal inhibitory concentration (MIC) was 1.1 to 2 µg/mL (≈ 1.72 to 3.12 µM) in the assay with C. parapsilosis (setting [1]); 1.01 to 2 µg/mL (≈ 1.58 to 3.12 µM) in the assay with C. parapsilosis (setting [2]); 0.25 to 1 µg/mL (≈ 0.39 to 1.56 µM) in the assay with C. krusei (setting [3]); 0.25 to 1 µg/mL (≈ 0.39 to 1.56 µM) with C. krusei (setting [4]); 0.25 to 1 µg/mL (≈ 0.39 to 1.56 µM) with C. albicans (setting [5]); 0.25 to 1 µg/mL (≈ 0.39 to 1.56 µM) in the assay on C. albicans (setting [6]). The IC50 lay in the range of 5 to 10 nM at human (hACC2) (Table 2a); 5 to 10 nM at human (hACC2) (Table 2b, additional results); 1 to 5 nM on fungal (fACC2) (Table 2a); 1 to 5 nM on fungal (fACC2) (Table 2b, additional results).
As to `COc1ccc(F)cc1[C@H](Cn1c(=O)n([C@H](C)C(=O)N(C)C(C)C)c(=O)c2c(C)c(-n3nccn3)sc21)O[C@H]1CC[C@@H](O)CC1` [Compound I-166], the minimum inhibitory concentration (MIC) in the assay on C. parapsilosis (setting [1]) was 0.25 to 1 µg/mL (≈ 0.389 to 1.56 µM); with C. parapsilosis (setting [2]) it was 1.01 to 2 µg/mL (≈ 1.57 to 3.11 µM); in the assay on C. krusei (setting [3]) it was 0.25 to 1 µg/mL (≈ 0.389 to 1.56 µM); in the assay on C. krusei (setting [4]) it was 1.01 to 2 µg/mL (≈ 1.57 to 3.11 µM); in the assay with C. albicans (setting [5]), 0.25 to 1 µg/mL (≈ 0.389 to 1.56 µM); in the assay on C. albicans (setting [6]), 0.25 to 1 µg/mL (≈ 0.389 to 1.56 µM). Besides, the IC50 against human (hACC2) (Table 2a) is 1 to 5 nM; against human (hACC2) (Table 2b, additional results), 1 to 5 nM; on fungal (fACC2) (Table 2a), 0.4 to 1 nM; on fungal (fACC2) (Table 2b, additional results) it was 0.3 to 1 nM.
With `COc1ccc(F)cc1[C@H](Cn1c(=O)n([C@@H](C)C(=O)N(C)C(C)C)c(=O)c2c(C)c(-n3nccn3)sc21)O[C@H]1CC[C@@H](O)CC1` [Compound I-167], the minimal inhibitory concentration (MIC) fell in the range of 2.1 to 4 µg/mL (≈ 3.27 to 6.22 µM) in the assay on C. parapsilosis (setting [1]); 1.01 to 2 µg/mL (≈ 1.57 to 3.11 µM) with C. parapsilosis (setting [2]); 0.25 to 1 µg/mL (≈ 0.389 to 1.56 µM) in the assay on C. krusei (setting [3]); 1.01 to 2 µg/mL (≈ 1.57 to 3.11 µM) in the assay on C. krusei (setting [4]); 1.1 to 2 µg/mL (≈ 1.71 to 3.11 µM) in the assay on C. albicans (setting [5]); 0.25 to 1 µg/mL (≈ 0.389 to 1.56 µM) with C. albicans (setting [6]). Besides, the IC50 against human (hACC2) (Table 2a) lay in the range of 5 to 10 nM; against human (hACC2) (Table 2b, additional results) it was 5 to 10 nM; on fungal (fACC2) (Table 2a), 0.4 to 1 nM; on fungal (fACC2) (Table 2b, additional results) it was 0.3 to 1 nM.
Turning to `COc1ccc(F)cc1[C@H](Cn1c(=O)n(C(C)(C)C(=O)NC(C)C)c(=O)c2c(C)c(-n3nccn3)sc21)OCCC(C)(C)O` [Compound I-168], the minimum inhibitory concentration (MIC) with C. parapsilosis (setting [7]), with C. krusei (setting [8]) and in the assay on C. albicans (setting [9]) was 0.25 to 1 µg/mL (≈ 0.396 to 1.59 µM) each time. Further, the half-inhibitory concentration (IC50) was in the range of 5 to 10 nM against human (hACC2) (Table 2a); 5 to 10 nM against human (hACC2) (Table 2b, additional results); 1 to 5 nM at fungal (fACC2) (Table 2a); 1 to 5 nM on fungal (fACC2) (Table 2b, additional results).
`COc1ccc(F)cc1[C@H](Cn1c(=O)n([C@H](C)C(=O)N(C)C(C)C)c(=O)c2c(C)c(-n3nccn3)sc21)OCC(C)(C)O` [Compound I-169]: the MIC with C. parapsilosis (setting [2]) is 2.01 to 4 µg/mL (≈ 3.26 to 6.49 µM); in the assay with C. krusei (setting [4]) it was over 4.01 µg/mL; in the assay with C. albicans (setting [6]) it was 0.25 to 1 µg/mL (≈ 0.405 to 1.62 µM). Besides, the IC50 against human (hACC2) (Table 2a) is over 40 nM; at human (hACC2) (Table 2b, additional results), over 40 nM; on fungal (fACC2) (Table 2a), 1 to 5 nM; on fungal (fACC2) (Table 2b, additional results), 1 to 5 nM.
`COc1ccc(F)cc1[C@H](Cn1c(=O)n([C@@H](C)C(=O)N(C)C(C)C)c(=O)c2c(C)c(-n3nccn3)sc21)OCC(C)(C)O` [Compound I-170]: the minimal inhibitory concentration (MIC) in the assay on C. parapsilosis (setting [2]) was 2.01 to 4 µg/mL (≈ 3.26 to 6.49 µM); in the assay on C. krusei (setting [4]), over 4.01 µg/mL; in the assay on C. albicans (setting [6]), 0.25 to 1 µg/mL (≈ 0.405 to 1.62 µM). For the same compound, the half-maximal inhibitory concentration (IC50) fell in the range of 10 to 40 nM at human (hACC2) (Table 2a); 10 to 40 nM against human (hACC2) (Table 2b, additional results); 0.4 to 1 nM on fungal (fACC2) (Table 2a); 0.3 to 1 nM on fungal (fACC2) (Table 2b, additional results).
Consider `COc1ccc(F)cc1[C@H](Cn1c(=O)n([C@H](C)C(=O)NC(C)C)c(=O)c2c(C)c(-n3nccn3)sc21)OCC(C)(C)O` [Compound I-171], for which the MIC with C. parapsilosis (setting [7]) is 1.01 to 2 µg/mL (≈ 1.68 to 3.32 µM); with C. krusei (setting [8]) it was 2.01 to 4 µg/mL (≈ 3.34 to 6.64 µM); in the assay with C. albicans (setting [9]), 1.01 to 2 µg/mL (≈ 1.68 to 3.32 µM). The IC50 lay within 10 to 40 nM at human (hACC2) (Table 2a); 10 to 40 nM on human (hACC2) (Table 2b, additional results); 1 to 5 nM at fungal (fACC2) (Table 2a); 1 to 5 nM on fungal (fACC2) (Table 2b, additional results).
